Measured values as given in patent US12312628B2, “Metabolic control over organometallic catalysts using electroactive bacteria” (THE BOARD OF REGENTS OF THE UNIVERSITY OF TEXAS SYSTEM, priority 2018, dated 2025).

Columns and labels:
S. oneidensis MR-1 = assay: Bacterial viability after polymerization (LIVE/DEAD BacLight, CFU counting); assay type: cell-based, Shewanella oneidensis
Description: Bacterial viability was determined by CFU counting and staining with the LIVE/DEAD BacLight Viability Kit (Invitrogen). For CFU counting, serial dilutions from the Cu-TPMA polymerization reaction and a control culture containing 20 mM sodium lactate and 40 mM sodium fumarate were plated onto LB agar containing 20 mM sodium lactate and 40 mM sodium fumarate, and incubated anaerobically for 18 hours. The LIVE/DEAD BacLight Viability Kit was used according to manufacturer instructions. Briefly, cells were harvested after polymerization and washed 3× with 0.85% saline by centrifugation at 6000×g for 20 min. Cells were concentrated to an OD600 of ˜2.0 and incubated with the LIVE/DEAD BacLight Bacterial Viability dye mixture in the dark for 15 minutes. Excess, unbound dye was removed by repeated centrifugation and washing with 0.85% saline (total of 5 washes). 20 μL of cells were placed on glass slides, allowed to settle, and covered with a 0.17 mm coverslip. Excess moisture was wicked from the slide edges and the coverslips were sealed with nail polish. A Zeiss Axiovert 200M Fluorescent Microscope was used to image live and dead cells at room temperature. Images were captured using 475/40 nm excitation and 530/50 nm emission for green (live) fluorescence and 560/40 nm excitation and 630/75 nm emission for red (dead) fluorescence with a 40× oil objective. Cell counts to determine the viable population percentages were quantified by thresholding using Fiji 1.0 software from at least 3 different fields of view. Representative images were background subtracted using a rolling ball radius of 10 pixels in Fiji 1.0.

E. coli = conditions: polymerization conditions, Cu(II/I) 2 μM
[1] = system: S. oneidensis genomic knockout strain (ΔmtrCΔomcAΔmtrF) with BUFFER GATE/sfGFP plasmid; assay: BUFFER GATE/sfGFP reporter response to inducer; assay type: cell-based, Shewanella oneidensis; conditions: various concentrations of IPTG
Description: An S. oneidensis strain/plasmid system was developed that tunes extracellular electron transfer via BUFFER GATE-controlled expression of mtrC. The BUFFER GATE sets gene expression as ‘off’ in the absence of a user-defined signal (e.g., small-molecule, light, heat). However, in the signal's presence, the BUFFER GATE turns gene expression ‘on’. A BUFFER GATE was constructed by encoding the LacI repressor and Ptac promoter pairing on a plasmid, which together can modulate transcription of promoter-downstream genes based on culture concentration of the small-molecule Isopropyl β-D-1-thiogalactopyranoside or IPTG. To test the functionality and dynamic range of gene expression actuated by this BUFFER GATE, a plasmid was constructed that placed a ribozyme-insulated fluorescent reporter gene, superfolder GFP or sfGFP, downstream of the Ptac promoter. This BUFFER GATE/sfGFP plasmid was used to transform an S. oneidensis genomic knockout strain (ΔmtrCΔomcAΔmtrF) and sfGFP fluorescence was measured at various concentrations of IPTG. Using this S. oneidensis strain, 488/530 nm fluorescence varied over about 2 orders of magnitude (FIG. 11).

[Cu+] [Cu(I)]
inhibition of MR-1 growth (S. oneidensis MR-1; after 24 hours of polymerization, CuSO4·5H2O and EDTA): minimal inhibition

O.O.O.O.O.O=S(=O)([O-])[O-].[Cu+2] [Cu(II), Cupric sulfate pentahydrate]
post-polymerization viability (S. oneidensis MR-1; MR-1, polymerization conditions, Cu(II/I) 2 μM): 74%
MR-1 colony forming units (CFUs) following polymerization (S. oneidensis MR-1; optimized polymerization conditions, Cu(II/I) 2 μM and below): No significant difference
post-polymerization viability (E. coli): 86%

CC(C)S[C@@H]1O[C@H](CO)[C@H](O)[C@H](O)[C@H]1O [IPTG, Isopropyl β-D-1-thiogalactopyranoside]
sfGFP 488/530 nm fluorescence variation [1]: about 2 orders of magnitude
